# According to patent publication US10441587B2, “Treatment of lung cancer with inhibitors of glutaminase” (Calithera Biosciences, Inc., priority 2015, dated 2019):
# Key:
# H2073 (CALA) = assay: Sensitivity of NSCLC cell line to CB-839; type: cell-based; settings: KRAS wt, no amp, EGFR wt, n 3
# H1437 (CALA) = assay: Sensitivity of NSCLC cell line to CB-839; type: cell-based; settings: KRAS wt, no amp, EGFR wt, n 3
# H647 (CALA) = assay: Sensitivity of NSCLC cell line to CB-839; type: cell-based; settings: KRAS G13D, no amp, EGFR wt, n 3
# H2122 (CALA) = assay: Sensitivity of NSCLC cell line to CB-839; type: cell-based; settings: KRAS G12C, no amp, EGFR wt, n 5
# H2023 (CALA) = assay: Sensitivity of NSCLC cell line to CB-839; type: cell-based; settings: KRAS wt, no amp, EGFR wt, n 3
# H838 (CALA) = assay: Sensitivity of NSCLC cell line to CB-839; type: cell-based; settings: KRAS wt, AMP, EGFR wt, n 3
# H1975 (CALA) = assay: Sensitivity of NSCLC cell line to CB-839; type: cell-based; settings: KRAS wt, no amp, EGFR L858R/T790M, n 4
# H358 (CALA) = assay: Sensitivity of NSCLC cell line to CB-839; type: cell-based; settings: KRAS G12C, no amp, EGFR wt, n 4
# ChaGo-K1 (CALA) = assay: Sensitivity of NSCLC cell line to CB-839; type: cell-based; settings: KRAS wt, no amp, EGFR wt, n 3
# H2030 (CALA) = assay: Sensitivity of NSCLC cell line to CB-839; type: cell-based; settings: KRAS G12C, no amp, EGFR wt, n 3
# HCC827 (CALA) = assay: Sensitivity of NSCLC cell line to CB-839; type: cell-based; settings: KRAS wt, no amp, EGFR exon 19 deletion, n 3
# H1693 (CALA) = assay: Sensitivity of NSCLC cell line to CB-839; type: cell-based; settings: KRAS wt, no amp, EGFR wt, n 3
# H2085 (CALA) = assay: Sensitivity of NSCLC cell line to CB-839; type: cell-based; settings: KRAS wt, no amp, EGFR no data, n 3
# H1703 (CALA) = assay: Sensitivity of NSCLC cell line to CB-839; type: cell-based; settings: KRAS wt, AMP, EGFR wt, n 4
# A549 (CALA) = assay: Sensitivity of NSCLC cell line to CB-839; type: cell-based; settings: KRAS G12S, no amp, EGFR wt, n 2
# H661 (CALA) = assay: Sensitivity of NSCLC cell line to CB-839; type: cell-based; settings: KRAS wt, AMP, EGFR wt, n 3
# H2347 (CALA) = assay: Sensitivity of NSCLC cell line to CB-839; type: cell-based; settings: KRAS L19F, no amp, EGFR wt, n 3
# [1] = test system: non-small cell lung cancer cell lines exhibiting a KRAS mutation; assay: Sensitivity of non-small cell lung cancer cell lines by mutation status; type: cell-based; settings: KRAS-mutant vs wild-type non-small cell lung cancer cell lines; arrested growth and/or cell death
# H23 (CALA) = assay: Sensitivity of NSCLC cell line to CB-839; type: cell-based; settings: KRAS G12C, AMP, EGFR wt, n 4
# [2] = test system: H2122 lung adenocarcinoma xenograft; assay: Lung adenocarcinoma xenograft efficacy study; type: in vivo; settings: H2122 xenograft in scid/beige mice; 200 mg/kg orally BID for 23 days; vs vehicle
# Description: Female scid/beige mice (n═20) age 6-8 weeks were implanted subcutaneously with 1×10^7 H2122 lung adenocarcinoma cells per mouse suspended in PBS. Mice were randomized into the following two groups of n=10 mice/group: 1) Vehicle control (25% Hydroxypropyl-β-cyclodextrin) and 2) Compound 670 dosed orally at 200 mg/kg (formulated at 20 mg/mL in 25% HP-β-CD). For both groups, dosing was initiated 24 hours post-implant and continued orally BID for 23 days. Tumors were measured with calipers three times per week and tumor volume calculated using the formula tumor volume (mm^3)=(a×b^2/2) where ‘b’ is the smallest diameter and ‘a’ is the largest perpendicular diameter. **P-value<0.01 (Two-sided T-test).
# H226 (CALA) = assay: Sensitivity of NSCLC cell line to CB-839; type: cell-based; settings: KRAS wt, no amp, EGFR wt, n 4
# H1568 (CALA) = assay: Sensitivity of NSCLC cell line to CB-839; type: cell-based; settings: KRAS wt, no amp, EGFR wt, n 4
# H1299 (CALA) = assay: Sensitivity of NSCLC cell line to CB-839; type: cell-based; settings: KRAS wt, no amp, EGFR wt, n 3
# H1563 (CALA) = assay: Sensitivity of NSCLC cell line to CB-839; type: cell-based; settings: KRAS wt, no amp, EGFR wt, n 4
# H1650 (CALA) = assay: Sensitivity of NSCLC cell line to CB-839; type: cell-based; settings: KRAS wt, no amp, EGFR exon 19 deletion, n 1
# H441 (CALA) = assay: Sensitivity of NSCLC cell line to CB-839; type: cell-based; settings: KRAS G13V, AMP, EGFR wt, n 3
compound,measurement,setting,value
O=C(Cc1cccc(OC(F)(F)F)c1)Nc1ccc(CCCCc2nnc(NC(=O)Cc3ccccn3)s2)nn1 [compound 670],Sensitivity to CB-839 average,H2073 (CALA),57.67
same,Sensitivity to CB-839 average,H1437 (CALA),8.33
same,Sensitivity to CB-839 average,H647 (CALA),18.267
same,Sensitivity to CB-839 average,H2122 (CALA),−28.637
same,Sensitivity to CB-839 average,H2023 (CALA),−47
same,Sensitivity to CB-839 average,H838 (CALA),82
same,Sensitivity to CB-839 average,H1975 (CALA),22.225
same,Sensitivity to CB-839 average,H358 (CALA),−34
same,Sensitivity to CB-839 average,ChaGo-K1 (CALA),86
same,Sensitivity to CB-839 average,H2030 (CALA),−30
same,Sensitivity to CB-839 average,HCC827 (CALA),−9
same,Sensitivity to CB-839 average,H1693 (CALA),82.67
same,Sensitivity to CB-839 average,H2085 (CALA),80.667
same,Sensitivity to CB-839 average,H1703 (CALA),−10
same,Sensitivity to CB-839 average,A549 (CALA),−68.565
same,Sensitivity to CB-839 average,H661 (CALA),1.33
same,Sensitivity to CB-839 average,H2347 (CALA),−14
same,sensitivity to treatment versus wild-type cell lines,[1],more sensitive
same,Sensitivity to CB-839 average,H23 (CALA),−13
same,tumor size,[2],reduced tumor size
same,Sensitivity to CB-839 average,H226 (CALA),38.75
same,Sensitivity to CB-839 average,H1568 (CALA),−38
same,Sensitivity to CB-839 average,H1299 (CALA),68.67
same,Sensitivity to CB-839 average,H1563 (CALA),61.5
same,Sensitivity to CB-839 average,H1650 (CALA),19
same,Sensitivity to CB-839 average,H441 (CALA),−2.67
